The values that follow come from PMC7761982, “FDA-Approved Drugs with Potent In Vitro Antiviral Activity against Severe Acute Respiratory Syndrome Coronavirus 2” (Pharmaceuticals, 2020).

Molecules are shown by their SMILES. Counter-ions that a name gives are not always drawn. Like-named read-outs stand apart in the source and are kept apart here.

Data set [1] relates to NRC-03-nhCoV. The data set can be described thus: microbe, parasite or virus in culture. The data set is classed as cell-based, SARS-CoV-2.
Data set [2] is described as follows: in vitro. As to conditions: African green monkey, CC50 (Vero-E6).
Where [3] appears, read: Severe acute respiratory syndrome coronavirus 2, Vero C1008, 72 h, Vero-E6 cells, 72 h, crystal violet, reduction of virus-induced CPE by 50%, read-out: IC50 (NRC-03-nhCoV).
Where [4] appears, read: half maximal cytotoxic concentration, MTT assay, Vero-E6 cells.
Where [5] appears, read: Severe acute respiratory syndrome coronavirus 2, Vero C1008, negative log of the IC50 value against SARS-CoV-2, read-out: pIC50 (converted).

As to `CC(=O)Oc1ccccc1C(=O)O` [Acetyl Salicylic acid “Aspirin”, Acetyl Salicylic acid], the IC50 in data set [1] (setting [3]) was 12.2 µM. For the same molecule, in data set [2] (setting [4]), the CC50 came to 1260 µM.

As to `CC1(C)S[C@@H]2[C@H](NC(=O)[C@H](N)c3ccc(O)cc3)C(=O)N2[C@H]1C(=O)O` [Amoxicillin], the IC50 in data set [1] (setting [3]) worked out at 16.1 µM. Further, the CC50 in data set [2] (setting [4]) turned out to be 615 µM.

Take `CCN1CCN(C(=O)N[C@@H](C(=O)N[C@@H]2C(=O)N3C(C(=O)O)=C(CSc4nnnn4C)CS[C@H]23)c2ccc(O)cc2)C(=O)C1=O` [Cefoperazone]: the IC50 in data set [1] (setting [3]) stood at 12.4 µM. The same molecule yielded a CC50 in data set [2] (setting [4]) of 69 µM.

`CO/N=C(\C(=O)N[C@@H]1C(=O)N2C(C(=O)O)=C(COC(C)=O)CS[C@H]12)c1csc(N)n1` [Cefotaxime]: the IC50 in data set [1] (setting [3]) turned out to be 42.7 µM. Also, the CC50 in data set [2] (setting [4]) is 3160 µM.

With `CC(C)(O/N=C(\C(=O)N[C@@H]1C(=O)N2C(C(=O)[O-])=C(C[n+]3ccccc3)CS[C@H]12)c1csc(N)n1)C(=O)O` [Ceftazidime], in data set [1] (setting [3]), the IC50 turned out to be 46.1 µM. The molecule further had a CC50 in data set [2] (setting [4]) of 5550 µM.

`CO/N=C(\C(=O)N[C@@H]1C(=O)N2C(C(=O)O)=C(CSc3nc(=O)c(=O)[nH]n3C)CS[C@H]12)c1csc(N)n1` [Ceftriaxone]: the IC50 in data set [1] (Severe acute respiratory syndrome coronavirus 2, Vero C1008, Vero-E6 cells, 72 h, crystal violet, reduction of virus-induced CPE by 50%, read-out: IC50 (NRC-03-nhCoV)) was 16.1 µM. This molecule returned a CC50 in data set [2] (setting [4]) of 446 µM.

Consider `Cc1ccc(-c2cc(C(F)(F)F)nn2-c2ccc(S(N)(=O)=O)cc2)cc1` [Celecoxib], for which the IC50 in data set [1] (setting [3]) was 13 µM; in data set [1] (setting [5]) it was 12.9 µM. Further, the CC50 in data set [2] (setting [4]) came to 140 µM.

For `CC1=C(C(=O)O)N2C(=O)[C@@H](NC(=O)[C@H](N)c3ccccc3)[C@H]2SC1` [Cephalexin], the IC50 in data set [1] (setting [3]) was 13.2 µM.

Consider `CN(C)CCC(c1ccc(Cl)cc1)c1ccccn1` (centres unmarked) [Chlorpheniramine maleate], for which the IC50 in data set [1] (setting [3]) stood at 3.6 µM. In data set [2] (setting [4]), this molecule displayed a CC50 of 466 µM.

Take `CC(C)C(=O)OCC(=O)[C@@]12O[C@H](C3CCCCC3)O[C@@H]1C[C@H]1[C@@H]3CCC4=CC(=O)C=C[C@]4(C)[C@H]3[C@@H](O)C[C@@]12C` [Ciclesonide]: the IC50 in data set [1] (setting [3]) turned out to be 4.2 µM. The molecule further displayed a CC50 in data set [2] (setting [4]) of 120 µM.

In the case of `O=C(O)c1cn(C2CC2)c2cc(N3CCNCC3)c(F)cc2c1=O` [Ciprofloxacin], the IC50 in data set [1] (setting [3]) turned out to be 61.6 µM.

For the molecule `CCC[C@@H]1C[C@@H](C(=O)N[C@@H]([C@H]2O[C@H](SC)[C@H](O)[C@@H](O)[C@H]2O)[C@H](C)Cl)N(C)C1` [Clindamycin], the IC50 in data set [1] (setting [3]) turned out to be 15.7 µM; in data set [1] (Vero-E6 cells, 72 h, crystal violet, reduction of virus-induced CPE by 50%, read-out: IC50 (NRC-03-nhCoV)), 15.7 µM.

In the case of `C[C@@H]1C[C@H]2[C@@H]3CCC4=CC(=O)C=C[C@]4(C)[C@@]3(F)[C@@H](O)C[C@]2(C)[C@@]1(O)C(=O)CO` [Dexamethasone], the IC50 in data set [1] (setting [3]) stood at 123 µM. In data set [2] (setting [4]), this molecule registered a CC50 of 1900 µM.

For `O=C(O)Cc1ccccc1Nc1c(Cl)cccc1Cl` [Diclofenac sodium], the IC50 in data set [1] (setting [3]) amounted to 96.2 µM. In data set [2] (setting [4]), the CC50 was found to be 138 µM.

Turning to `C[C@H]1c2cccc(O)c2C(=O)C2=C(O)[C@]3(O)C(=O)C(C(N)=O)=C(O)[C@@H](N(C)C)[C@@H]3[C@@H](O)[C@@H]21` [Doxycycline], the IC50 in data set [1] (setting [3]) was 5.1 µM; in data set [1] (setting [5]), 5.13 µM. Also, the CC50 in data set [2] (setting [4]) came to 636 µM.

As to `Cc1onc(-c2c(F)cccc2Cl)c1C(=O)N[C@@H]1C(=O)N2[C@@H]1SC(C)(C)[C@@H]2C(=O)O` [Flucloxacillin], in data set [1] (setting [3]), the IC50 was found to be 158 µM. This molecule registered a CC50 in data set [2] (setting [4]) of 966 µM.

For `CCC(=O)O[C@]1(C(=O)SCF)[C@H](C)C[C@H]2[C@@H]3C[C@H](F)C4=CC(=O)C=C[C@]4(C)[C@@]3(F)[C@@H](O)C[C@@]21C` [Fluticasone Propionate], the IC50 in data set [1] (setting [3]) came to 1.71 µM. The CC50 in data set [2] (setting [4]) was found to be 32 µM.

For `C[C@]12CCC(=O)C=C1CC[C@@H]1[C@@H]2[C@@H](O)C[C@@]2(C)[C@H]1CC[C@]2(O)C(=O)CO` [Hydrocortisone], in data set [1] (setting [3]), the IC50 is 7.1 µM. In data set [2] (setting [4]), this molecule gave a CC50 of 614 µM.

In data set [2], `CC(C)(O)c1ccccc1CC[C@@H](SCC1(CC(=O)O)CC1)c1cccc(/C=C/c2ccc3ccc(Cl)cc3n2)c1` [Montelukast] showed a CC50 of 9.86 µM.

`CC(=O)Nc1ccc(O)cc1` [Paracetamol]: the CC50 in data set [2] (setting [4]) worked out at 4980 µM.
